The record followed here is patent publication EP4813403A1, “USE OF GLP-1R/GIPR DOUBLE-TARGET AGONIST IN PREPARING ANIMAL DRUG” (Hangzhou Zhongmeihuadong Pharmaceutical Co., Ltd., priority 2023, dated 2025).

One experiment has as its system db/db mice. Put plainly: Multiple administration experiment on db/db mice. Type of experiment: in vivo. Particulars: for AUC 4-25 day Glu / D28 FBG(Fasting Blood Glucose) / Liver Weight / Serum ALT / Serum TBIL / Serum TG: db/db mice, s.c. every 3 days for 4 weeks, Mean±SEM, 6 mice. Here is the method: "Minimum effective dose" as disclosed in the present invention refers to the minimum administration dose at which the drug effect is produced.
"Efficacy dose" as disclosed in the present invention refers to the administration dose at which the drug effect is produced.
In this study, 7-8 week old male db/db mice were used. The db/db mice were placed in an individual ventilated cage (IVC) facility with a controlled temperature (20-26°C) and humidity (40-70%) and a controlled 12:12 h light-dark cycle. The mice received food and water ad libitum. Blood were sampled at the tail tip, and the base blood glucose was measured by a Roche blood glucose meter. The mice were randomly divided into groups according to the initial blood glucose and initial body weight (n=6/group), and each group had similar body weight and blood glucose.
The mice were subcutaneously administrated every 3 days for 4 weeks. Subcutaneous administration was conducted on days 1, 4, 7, 10, 13, 16, 19, 22 and 25. Random blood glucose was recorded every 3 days throughout the study. On day 28, the fasting blood glucose was measured. Then the blood was collected by orbital blood sampling. After the orbital blood sampling, the animals were sacrificed, and the liver was taken and weighed. After 1 to 2 hours, the collected blood was centrifuged at 3000 rpm for 10 min to separate the serum. Biochemical indicators such as triglyceride (TG), alanine aminotransferase (ALT), and total bilirubin (TBIL) were determined with a biochemical analyzer. The data results were statistically analyzed using GraphPad Prism8, and the statistical differences among the groups were analyzed following T-Test. Significant differences were identified at p<0.05.

A further experiment has as its target T1, human GIP Receptor (Homo sapiens, UniProt P48546).
T1 construct: expressed in transfected cells
T1 sequence (P48546 22-466): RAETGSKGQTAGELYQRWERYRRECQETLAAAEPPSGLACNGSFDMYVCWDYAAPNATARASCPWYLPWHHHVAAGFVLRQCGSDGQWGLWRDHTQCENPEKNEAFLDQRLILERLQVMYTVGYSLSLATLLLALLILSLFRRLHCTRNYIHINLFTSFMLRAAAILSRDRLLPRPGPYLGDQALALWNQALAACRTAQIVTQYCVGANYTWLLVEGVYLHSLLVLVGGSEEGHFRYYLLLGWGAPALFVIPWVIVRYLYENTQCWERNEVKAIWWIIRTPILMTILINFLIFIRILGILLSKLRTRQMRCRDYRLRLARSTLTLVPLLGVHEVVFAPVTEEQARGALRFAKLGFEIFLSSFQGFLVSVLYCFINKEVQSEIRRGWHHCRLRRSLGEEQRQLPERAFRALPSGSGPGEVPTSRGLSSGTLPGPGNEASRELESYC
Put plainly: In vitro binding activity to human GIP receptor ([125I]GIP displacement, crude cell membranes). The settings on record: ratio of the Ki value of the endogenous ligand to the Ki value of the test compound; larger ratio = stronger binding. Here is the method: 89 µL of membrane dissolved in binding buffer (50 mM Hepes, pH 7.4, 5 mM MgCl2 , 5 mM EDTA, 0.005% TWEEN, 0.005% HSA) was transferred to a 96-well test plate (5 µg/well). The compound was serially diluted in DMSO, and then, 1 µL of the diluted compound or 100% DMSO was added to the test plate containing the membrane solution. 10 µL of [^125I] […] The test plate was left at room temperature for 90 minutes. The membrane complexes were harvested into a GF/B plate pre-coated with 0.5% PEI by using a Cell Harvester, and washed for 3 times with 500 µL of pre-cooled elution buffer (50 mM Hepes, pH 7.4, 500 mM NaCl) at 4°C. After drying at 37°C for 2 hours, 50 µL of scintillation fluid was added to each well. The plate was read with a MicroBeta2 scintillation counter after sealing and settling for at least 1 hour so as to determine the membrane bound radioligand level.
hGIP and the compound of the present invention were dissolved in DMSO and stored at -80°C. 98 µL of membrane dissolved in binding buffer (50 mM HEPES pH 7.4, 5 mM MgCl2, 1 mM CaCl2, 0.1% BSA, 0.005% Tween-20) was transferred to a 96-well test plate (15 µg/well). The compound was serially diluted in DMSO, and then, 2 µL of the diluted compounds or 100% DMSO was added to the test plate containing the membrane solution. […] The test plate was left at room temperature for 90 minutes. The membrane complexes were harvested into a GF/B plate pre-coated with 0.5% PEI by using a Cell Harvester, and washed for 3 times with 500 µL of pre-cooled elution buffer (50 mM Tris-HCl pH 7.4, 125 mM NaCl) at 4°C. After drying at 37°C for 2 hours, 50 µL of scintillation fluid was added to each well. The plate was read with a MicroBeta2 scintillation counter after sealing and settling for at least 1 hour so as to determine the membrane bound radioligand level.
The IC50 concentration was converted to Ki (Ki was the inhibition constant) using the Cheng-Prusoff equation. Table 1. Receptor Binding Affinity, Ki Ratio

Consider `CC[C@H](C)[C@H](NC(=O)C(C)(C)NC(=O)[C@H](Cc1ccc(O)cc1)NC(=O)[C@H](CC(=O)O)NC(=O)[C@H](CO)NC(=O)[C@@H](NC(=O)C(C)(Cc1ccccc1)NC(=O)[C@@H](NC(=O)CNC(=O)[C@H](CCC(=O)O)NC(=O)C(C)(C)NC(=O)[C@@H](N)Cc1ccc(O)cc1)[C@@H](C)O)[C@@H](C)O)C(=O)NC(C)(C)C(=O)N[C@@H](CC(C)C)C(=O)N[C@@H](CC(=O)O)C(=O)N[C@@H](CCCCN)C(=O)N[C@@H](CCC(N)=O)C(=O)N[C@@H](C)C(=O)N[C@@H](CCC(N)=O)C(=O)N[C@@H](C)C(=O)N[C@@H](CCC(=O)O)C(=O)N[C@@H](Cc1ccccc1)C(=O)N[C@H](C(=O)N[C@@H](CCCCNC(=O)COCCOCCNC(=O)COCCOCCNC(=O)COCCOCCNC(=O)CC[C@H](NC(=O)CCCCCCCCCCCCCCCCCCCCC(=O)O)C(=O)O)C(=O)N[C@@H](Cc1c[nH]c2ccccc12)C(=O)N[C@@H](CC(C)C)C(=O)N[C@@H](CC(C)C)C(=O)N[C@@H](CCCCN)C(=O)NCC(=O)NCC(=O)N1CCC[C@H]1C(=O)N[C@@H](CO)C(=O)N[C@@H](CO)C(=O)NCC(=O)N[C@@H](C)C(=O)N1CCC[C@H]1C(=O)N1CCC[C@H]1C(=O)N1CCC[C@H]1C(=O)N[C@@H](CO)C(=O)N[C@@H](CCCCN)C(N)=O)C(C)C` (stereo partly drawn) [Compound P016], for which the “Efficacy Dose” value with db/db mice (db/db mice multiple administrations, dose with blood glucose AUC p<0.05 vs. Vehicle) came to 3 nmol/kg. In the experiment on db/db mice (3 nmol/kg), the “AUC 4-25 day Glu” value turned out to be 256.38 ± 22 mmol·days/L, the “D28 FBG(Fasting Blood Glucose)” value turned out to be 10.42 ± 1.46 mmol/L, the “Liver Weight” value came out at 2.24 ± 0.1 g and the “Serum ALT” value is recorded as 137.93±34.59 U/L. For the same molecule, in the experiment with db/db mice (3 nmol/kg), the “Serum TBIL” value worked out at 0.82 ± 0.13 µmol/L and the “Serum TG” value was 1.21 ± 0.04 mmol/L. Also, in the experiment with db/db mice (10 nmol/kg), the “AUC 4-25 day Glu” value is 249.25 ± 41.42 mmol·days/L, the “D28 FBG(Fasting Blood Glucose)” value came to 12.5 ± 2.19 mmol/L, the “Liver Weight” value was determined as 1.98 ± 0.12 g and the “Serum ALT” value came to 128.94±16.93 U/L. Besides, in the experiment on db/db mice (10 nmol/kg), the “Serum TBIL” value came out at 1.22 ± 0.28 µmol/L and the “Serum TG” value was found to be 1.22 ± 0.24 mmol/L. In the experiment on db/db mice (30 nmol/kg), the “AUC 4-25 day Glu” value amounted to 163.98 ± 11.57 mmol·days/L, the “D28 FBG(Fasting Blood Glucose)” value is 6.05 ± 0.41 mmol/L, the “Liver Weight” value came out at 1.78 ± 0.08 g and the “Serum ALT” value is 97.7±12.36 U/L. Besides, in the experiment with db/db mice (30 nmol/kg), the “Serum TBIL” value was determined as 0.73 ± 0.16 µmol/L and the “Serum TG” value was determined as 1.2 ± 0.05 mmol/L. Moreover, the “GIPR Ki ratio” value on human GIP Receptor amounted to 0.11.
Consider `CC[C@H](C)[C@H](NC(=O)C(C)(C)NC(=O)[C@H](Cc1ccc(O)cc1)NC(=O)[C@H](CC(=O)O)NC(=O)[C@H](CO)NC(=O)[C@@H](NC(=O)C(C)(Cc1ccccc1)NC(=O)[C@@H](NC(=O)CNC(=O)[C@H](CCC(=O)O)NC(=O)C(C)(C)NC(=O)[C@@H](N)Cc1ccc(O)cc1)[C@@H](C)O)[C@@H](C)O)C(=O)NC(C)(C)C(=O)N[C@@H](CC(C)C)C(=O)N[C@@H](CC(=O)O)C(=O)N[C@@H](CCCCN)C(=O)N[C@@H](CCC(N)=O)C(=O)N[C@@H](C)C(=O)N[C@@H](CCC(N)=O)C(=O)N[C@@H](C)C(=O)N[C@@H](CCC(=O)O)C(=O)N[C@@H](Cc1ccccc1)C(=O)N[C@H](C(=O)N[C@@H](CCCCN)C(=O)N[C@@H](Cc1c[nH]c2ccccc12)C(=O)N[C@@H](CC(C)C)C(=O)N[C@@H](CC(C)C)C(=O)N[C@@H](CCCCNC(=O)COCCOCCNC(=O)COCCOCCNC(=O)COCCOCCNC(=O)CC[C@H](NC(=O)CCCCCCCCCCCCCCCCCCCCC(=O)O)C(=O)O)C(=O)NCC(=O)NCC(=O)N1CCC[C@H]1C(=O)N[C@@H](CO)C(=O)N[C@@H](CO)C(=O)NCC(=O)N[C@@H](C)C(=O)N1CCC[C@H]1C(=O)N1CCC[C@H]1C(=O)N1CCC[C@H]1C(=O)N[C@@H](CO)C(=O)N[C@@H](CCCCN)C(N)=O)C(C)C` (stereo partly drawn) [Compound P020], for which, in the experiment on db/db mice (3 nmol/kg), the “AUC 4-25 day Glu” value came out at 268.28 ± 24.64 mmol·days/L, the “D28 FBG(Fasting Blood Glucose)” value was found to be 9.6 ± 1.32 mmol/L, the “Liver Weight” value turned out to be 2.03 ± 0.09 g and the “Serum ALT” value is on record as 214.56±43.83 U/L. In the experiment with db/db mice (3 nmol/kg), the “Serum TBIL” value was 1.54 ± 0.25 µmol/L and the “Serum TG” value was 1.37 ± 0.12 mmol/L. In addition, in the experiment with db/db mice (10 nmol/kg), the “AUC 4-25 day Glu” value was 290.78 ± 27.25 mmol·days/L, the “D28 FBG(Fasting Blood Glucose)” value was 10.7 ± 1.62 mmol/L, the “Liver Weight” value is 2.09 ± 0.1 g and the “Serum ALT” value is given as 113.48±24.18 U/L. For the same molecule, in the experiment on db/db mice (10 nmol/kg), the “Serum TBIL” value is 0.91 ± 0.05 µmol/L and the “Serum TG” value was 1.07 ± 0.03 mmol/L. In the experiment on db/db mice (30 nmol/kg), the “AUC 4-25 day Glu” value came out at 184.18 ± 22.44 mmol·days/L, the “D28 FBG(Fasting Blood Glucose)” value stood at 8.22 ± 1.07 mmol/L, the “Liver Weight” value was 1.83 ± 0.16 g and the “Serum ALT” value is reported as 112.47±16.69 U/L. Besides, in the experiment with db/db mice (30 nmol/kg), the “Serum TBIL” value was 0.95 ± 0.28 µmol/L and the “Serum TG” value was determined as 1.2 ± 0.07 mmol/L. In addition, the “GIPR Ki ratio” value at human GIP Receptor is 0.05.
